Assay results: paper doi:10.1101/2023.12.06.570349v1 (biorxiv, 2023)

How the values were obtained:
H3R-453 [1] = molecular target: T1, H3R-453 (Homo sapiens, UniProt Q9Y5N1); assay: cell-based; design: species or system HEK293-EPAC stably expressing H3R isoform; conditions: HEK293-EPAC stably expressing H3R isoform, read-out: H3R-453 α
H3R-365 [2] = molecular target: T2, H3R-365 (Homo sapiens, UniProt Q9Y5N1); assay: biochemical
H3R-415 [3] = molecular target: T3, H3R-415 (Homo sapiens, UniProt Q9Y5N1); assay: biochemical
H3R-373 [4] = molecular target: T4, H3R-373 (Homo sapiens, UniProt Q9Y5N1, INS445KMKKKTCL); assay: cell-based; design: species or system HEK293-EPAC stably expressing H3R isoform; conditions: HEK293-EPAC stably expressing H3R isoform, read-out: H3R-373 α
H3R-445 [5] = molecular target: T5, H3R-445 (Homo sapiens, UniProt Q9Y5N1); assay: cell-based; design: species or system HEK293-EPAC stably expressing H3R isoform; conditions: HEK293-EPAC stably expressing H3R isoform, read-out: H3R-445 α
H3R-365 [6] = molecular target: T2, H3R-365; assay: cell-based; design: species or system HEK293-EPAC stably expressing H3R isoform; conditions: HEK293-EPAC stably expressing H3R isoform, read-out: H3R-365 α
H3R-415 [7] = molecular target: T3, H3R-415; assay: cell-based; design: species or system HEK293-EPAC stably expressing H3R isoform; conditions: HEK293-EPAC stably expressing H3R isoform, read-out: H3R-415 α
H3R-413 [8] = molecular target: T6, H3R-413 (Homo sapiens, UniProt Q9Y5N1, DEL274-305); assay: cell-based; design: species or system HEK293-EPAC stably expressing H3R isoform
H3R-373 [9] = molecular target: T4, H3R-373
H3R-413 [10] = molecular target: T6, H3R-413; assay: biochemical
H3R-413 [11] = molecular target: T6, H3R-413; assay: cell-based; design: species or system HEK293-EPAC stably expressing H3R isoform; conditions: HEK293-EPAC stably expressing H3R isoform, read-out: H3R-413 α
H3R-445 [12] = molecular target: T5, H3R-445; assay: biochemical
H3R-453 [13] = molecular target: T1, H3R-453
H3R-413 [14] = molecular target: T6, H3R-413; assay: biochemical; remark: listed apart in the source
H3R-415 [15] = molecular target: T3, H3R-415; assay: biochemical; remark: listed apart in the source
H3R-365 [16] = molecular target: T2, H3R-365; assay: biochemical; remark: listed apart in the source
H3R-453 [17] = molecular target: T1, H3R-453; conditions: […] Tris-HCl pH […] °C, […] h; labelled compound
H3R-445 [18] = molecular target: T5, H3R-445; assay: biochemical; remark: listed apart in the source
H3R-373 [19] = molecular target: T4, H3R-373; conditions: […] Tris-HCl pH […] °C, […] h; labelled compound

| Structure (SMILES) | Emax (H3R-453 [1]) | Ki (H3R-365 [2]) | Ki (H3R-415 [3]) | Emax (H3R-373 [4]) | Emax (H3R-445 [5]) | Emax (H3R-365 [6]) | Emax (H3R-415 [7]) | EC50 (H3R-413 [8]) | Ki (H3R-373 [9]) | Ki (H3R-413 [10]) | Emax (H3R-413 [11]) | Ki (H3R-445 [12]) | Ki (H3R-453 [13]) | Kd (H3R-413 [14]) | Kd (H3R-415 [15]) | Kd (H3R-365 [16]) | pKD (H3R-453 [17]) | Kd (H3R-445 [18]) | pKD (H3R-373 [19]) |
| --- | --- | --- | --- | --- | --- | --- | --- | --- | --- | --- | --- | --- | --- | --- | --- | --- | --- | --- | --- |
| NCCCCCc1c[nH]cn1 [impentamine, 5-(3H-imidazol-4-yl)pentan-1-amine] | 50 ± 10% | 2 nM | 3.98 nM | 70 ± 10% | 60 ± 20% | 100 ± 30% | 50 ± 10% | 6.31 nM | 1.58 nM | 3.98 nM | 50 ± 10% | 2.51 nM | 3.16 nM |  |  |  |  |  |  |
| CNCCc1c[nH]cn1 [[3H]NAMH] |  |  |  |  |  |  |  |  |  |  |  |  |  | 1.26 nM | 1.26 nM | 0.501 nM | 9.0 ± 0.1 | 1.26 nM | 9.6 ± 0.1 |
